Values quoted from earlier work as cited in PubChem BioAssay AID1259409 (Chemical Carcinogenesis Research Information System (CCRIS), 2018).

Tested on: rodent chemically induced tumor inhibition, incidence and multiplicity
Test: CCRIS tumor inhibitor studies

## [O]=[W](=[O])([OH])[OH]
Carcinogen: N-NITROSO-N-METHYLUREA, 684-93-5, Dose [Inhibitor]: 0, 150 PPM IN DRINKING WATER BEGINNING AT 35 D OF AGE (STUDY DURATION:198 D), Route [Inhibitor]: ORAL, Species: RAT, Strain/Sex: SPRAGUE-DAWLEY/FEMALE, Target Tissue: Type of Lesion: MAMMARY GLAND: CARCINOMA, Dose [Carcinogen]: 5 MG/100 G BW ONCE AT 50 D OF AGE, Promoter: NONE USED
  outcome: 50%, 79%, -58%, p<0.05 at 125 d; 91%, 96%, -5%, not calculated at 198 d
Carcinogen: N-NITROSOSARCOSINE ETHYL ESTER, 1130-69-4, Dose [Inhibitor]: 100 PPM IN DRINKING WATER DAILY FOR 19 WK STARTING 3 WK PRIOR TO START OF CARCINOGEN TREATMENT (STUDY DURATION: 19 WK), Route [Inhibitor]: ORAL, Species: RAT, Strain/Sex: SPRAGUE-DAWLEY/MALE, Target Tissue: Type of Lesion: ESOPHAGUS: CARCINOMA, Dose [Carcinogen]: 10 ML/KG BW 2/WK FOR 8 WK, Promoter: NONE USED
  tumour outcome (control, treated, inhibition, significance): 80%, 80%, 0%, not significant
Carcinogen: N-NITROSOSARCOSINE ETHYL ESTER, 1130-69-4, Dose [Inhibitor]: 100 PPM IN DRINKING WATER DAILY FOR 19 WK STARTING 3 WK PRIOR TO START OF CARCINOGEN TREATMENT (STUDY DURATION: 19 WK), Route [Inhibitor]: ORAL, Species: RAT, Strain/Sex: SPRAGUE-DAWLEY/MALE, Target Tissue: Type of Lesion: FORESTOMACH: CARCINOMA, Dose [Carcinogen]: 10 ML/KG BW 2/WK FOR 8 WK, Promoter: NONE USED
  tumour outcome (control, treated, inhibition, significance): 70%, 80%, -14%, not significant
Carcinogen: N-NITROSOSARCOSINE ETHYL ESTER, 1130-69-4, Dose [Inhibitor]: 100 PPM IN DRINKING WATER DAILY FOR 30 WK STARTING 3 WK PRIOR TO START OF CARCINOGEN TREATMENT (STUDY DURATION: 30 WK), Route [Inhibitor]: ORAL, Species: RAT, Strain/Sex: SPRAGUE-DAWLEY/MALE, Target Tissue: Type of Lesion: ESOPHAGUS: CARCINOMA, Dose [Carcinogen]: 10 ML/KG BW 2/WK FOR 8 WK, Promoter: NONE USED
  tumour outcome (control, treated, inhibition, significance): 91%, 86%, 5%, not significant
Carcinogen: N-NITROSOSARCOSINE ETHYL ESTER, 1130-69-4, Dose [Inhibitor]: 100 PPM IN DRINKING WATER DAILY FOR 30 WK STARTING 3 WK PRIOR TO START OF CARCINOGEN TREATMENT (STUDY DURATION: 30 WK), Route [Inhibitor]: ORAL, Species: RAT, Strain/Sex: SPRAGUE-DAWLEY/MALE, Target Tissue: Type of Lesion: FORESTOMACH: CARCINOMA, Dose [Carcinogen]: 10 ML/KG BW 2/WK FOR 8 WK, Promoter: NONE USED
  tumour outcome (control, treated, inhibition, significance): 100%, 100%, 0%, not significant

## O=c1cc(-c2ccc(O)c(O)c2)oc2cc(O)cc(O)c12
Carcinogen: 7,12-DIMETHYLBENZ[A]ANTHRACENE, 57-97-6, Dose [Inhibitor]: 0, 0.2 ML OF A 1% SOLUTION 1/D FOR 2 WK APPLIED 5 MIN POST EACH CARCINOGEN DOSE THEN 1/D FOR 4 WK DURING PROMOTION STAGE, Route [Inhibitor]: DERMAL, Species: MOUSE, Strain/Sex: SWISS/MALE, Target Tissue: Type of Lesion: SKIN: PAPILLOMA, Dose [Carcinogen]: 0.2 ML OF A 0.24% SOLUTION IN DMSO 1/D FOR 2 WK, Promoter: CROTON OIL, 8001-28-3
  tumour outcome (control, treated, inhibition, significance): 23/23 (100%), 10/24 (42%), 58%, not calculated
Carcinogen: 7,12-DIMETHYLBENZ[A]ANTHRACENE, 57-97-6, Dose [Inhibitor]: 0, 0.2 ML OF A 1% SOLUTION 1/D FOR 2 WK APPLIED 5 MIN PRIOR TO EACH CARCINOGEN DOSE (STUDY DURATION: 20 WK), Route [Inhibitor]: DERMAL, Species: MOUSE, Strain/Sex: SWISS/MALE, Target Tissue: Type of Lesion: SKIN: PAPILLOMA, Dose [Carcinogen]: 0.2 ML OF A 0.24% SOLUTION IN DMSO 1/D FOR 2 WK, Promoter: CROTON OIL, 8001-28-3
  tumour outcome (control, treated, inhibition, significance): 23/23 (100%), 20/23 (87%), 13%, not calculated

## CC(C(=O)O)c1ccc2c(c1)[nH]c1ccc(Cl)cc12 (stereo not drawn)
Carcinogen: 7,12-DIMETHYLBENZ[A]ANTHRACENE, 57-97-6, Dose [Inhibitor]: 0, 0.02% IN 20% FAT DIET CONTAINING 0.5% LINOLEIC ACID BEGINNING 7 D POST CARCINOGEN DOSE AND CONTINUING FOR DURATION OF, Route [Inhibitor]: ORAL, Species: RAT, Strain/Sex: SPRAGUE-DAWLEY/FEMALE, Target Tissue: Type of Lesion: MAMMARY GLAND: ADENOCARCINOMA, Dose [Carcinogen]: 5 MG AT 50-53 DAYS OF AGE, Promoter: NONE USED
  tumour outcome (control, treated, inhibition, significance): 56%, 52%, 7%, not calculated
Carcinogen: 7,12-DIMETHYLBENZ[A]ANTHRACENE, 57-97-6, Dose [Inhibitor]: 0, 0.02% IN 20% FAT DIET CONTAINING 4% LINOLEIC ACID BEGINNING 7 D POST CARCINOGEN DOSE AND CONTINUING FOR DURATION OF S, Route [Inhibitor]: ORAL, Species: RAT, Strain/Sex: SPRAGUE-DAWLEY/FEMALE, Target Tissue: Type of Lesion: MAMMARY GLAND: ADENOCARCINOMA, Dose [Carcinogen]: 5 MG AT 50-53 DAYS OF AGE, Promoter: NONE USED
  tumour outcome (control, treated, inhibition, significance): 53%, 61%, -15%, not calculated
Carcinogen: 7,12-DIMETHYLBENZ[A]ANTHRACENE, 57-97-6, Dose [Inhibitor]: 0, 0.02% IN 20% FAT DIET CONTAINING 12% LINOLEIC ACID BEGINNING 7 D POST CARCINOGEN DOSE AND CONTINUING FOR DURATION OF, Route [Inhibitor]: ORAL, Species: RAT, Strain/Sex: SPRAGUE-DAWLEY/FEMALE, Target Tissue: Type of Lesion: MAMMARY GLAND: ADENOCARCINOMA, Dose [Carcinogen]: 5 MG AT 50-53 DAYS OF AGE, Promoter: NONE USED
  tumour outcome (control, treated, inhibition, significance): 69%, 55%, 20%, not calculated
Carcinogen: 7,12-DIMETHYLBENZ[A]ANTHRACENE, 57-97-6, Dose [Inhibitor]: 0, 0.02% IN HIGH FAT DIET (20% CORN OIL) BEGINNING 7 D POST CARCINOGEN DOSE AND CONTINUING FOR DURATION OF STUDY (STUDY, Route [Inhibitor]: ORAL, Species: RAT, Strain/Sex: SPRAGUE-DAWLEY/FEMALE, Target Tissue: Type of Lesion: MAMMARY GLAND: ADENOCARCINOMA, Dose [Carcinogen]: 5 MG AT 50-53 DAYS OF AGE, Promoter: NONE USED
  tumour outcome (control, treated, inhibition, significance): 88%, 91%, -3%, not calculated
Carcinogen: 7,12-DIMETHYLBENZ[A]ANTHRACENE, 57-97-6, Dose [Inhibitor]: 0, 0.02% IN HIGH FAT DIET (20% CORN OIL) BEGINNING 7 D POST CARCINOGEN DOSE AND CONTINUING FOR DURATION OF STUDY (STUDY, Route [Inhibitor]: ORAL, Species: RAT, Strain/Sex: SPRAGUE-DAWLEY/FEMALE, Target Tissue: Type of Lesion: MAMMARY GLAND: TUMOR, Dose [Carcinogen]: 5 MG AT 50-53 DAYS OF AGE, Promoter: NONE USED
  tumour outcome (control, treated, inhibition, significance): 47%, 56%, -19%, not calculated
Carcinogen: 7,12-DIMETHYLBENZ[A]ANTHRACENE, 57-97-6, Dose [Inhibitor]: 0, 0.02% IN NORMAL FAT DIET (5% CORN OIL) BEGINNING 7 D POST CARCINOGEN DOSE AND CONTINUING FOR DURATION OF STUDY (STUDY, Route [Inhibitor]: ORAL, Species: RAT, Strain/Sex: SPRAGUE-DAWLEY/FEMALE, Target Tissue: Type of Lesion: MAMMARY GLAND: ADENOCARCINOMA, Dose [Carcinogen]: 5 MG AT 50-53 DAYS OF AGE, Promoter: NONE USED
  tumour outcome (control, treated, inhibition, significance): 59%, 83%, -41%, not calculated
